According to patent US9555038B2, “Heterocycle-substituted tetracyclic compounds and methods of use thereof for the treatment of viral diseases” (Merck Sharp & Dohme Corp., priority 2013, dated 2017):
Like-named read-outs stand apart in the source and are kept apart here.

Columns and labels:
HCV replicon 1AQ30D = assay: Cell-based HCV Replicon Assay B, replicon 1AQ30D
Description: In an alternate assay (“Replicon Assay B”), 1000 cells were seeded per well in a 384-well collagen coated black plate from Greiner bio-one (Cat #781946) in 5% FBS. Inhibitors of this invention were added at 24 h post-seeding, and the plates were incubated for 3 days. Cells were subsequently lysed with Qiagen lysis buffer (Cat #1062731) to extract the RNA. HCV replicon RNA level was measured by real-time PCR using the RNA-to-CT kit from Applied Biosystem (Cat #4392656) and genotype-specific primers and probes. The amplicon was located within NS5B. The sequence of the PCR primers are as follows: 5B.2F, ATGGACAGGCGCCCTGA (SEQ. ID NO. 1); 5B.2R, […] (SEQ. ID NO. 2); the probe sequence was FAM-labeled CACGCCATGCGCTGCGG (SEQ. ID NO. 3). To detect genotype 1A the primer 1A F, TGCGGAACCGGTGAGTACA and 1A R, […] were used; the probe sequence was FAM-[…].
The real-time RT-PCR reactions were run on ABI PRISM 7900HT or Viia7 Sequence Detection System using the following program: 48° C. for 30 minutes, 95° C. for 10 minutes, 40 cycles of 95° C. for 15 sec, 60° C. for 1 minutes. The 50% effective concentration (EC50) was the drug concentration necessary to achieve an increase in the cycle threshold (CT) of 1 over the projected baseline CT.
Data was obtained for various compounds of the present invention using the methods described in the Example above, and is presented in the table immediately below. Data for replicons 1A, 1AY93H and 2B were obtained using Replicon Assay A and data for replicons 1AQ30D and 1B were obtained using Replicon Assay B.

HCV replicon 1B = assay: Cell-based HCV Replicon Assay B, replicon 1B
Method in brief: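 Replicon cells seeded in 5% FBS; compounds added 24 h later, then 3 days' incubation. Replicon RNA quantified by real-time RT-PCR with genotype-specific primers/probes (NS5B amplicon for 1b). EC50 = concentration raising CT by 1 over projected baseline.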

HCV replicon 2B = assay: Cell-based HCV Replicon Assay A, replicon 2B
Method in brief: (§1)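 HCV replicon RNA levels are measured by multiplexed real-time RT-PCR, with cyclophilin as internal control, after 3 days of compound exposure. Compounds are tested in 10 serial dilutions starting between 333.3 nM and 1.667 nM, with 5% FBS in the medium.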

HCV replicon 1A = assay: Cell-based HCV Replicon Assay A, replicon 1A
Method in brief: as §1

HCV replicon 1AY93H = assay: Cell-based HCV Replicon Assay A, replicon 1AY93H
Method in brief: as §1

[1] = Hepatitis C virus, read-out: 1A Q30D IC50 (nM), replicon 1AQ30D
[2] = read-out: 1A Y93H IC50, replicon 1AY93H
[3] = read-out: 1A Q30D IC50, replicon 1AQ30D
[4] = Hepatitis C virus, read-out: 2B IC50 (nM), replicon 2B
[5] = Hepatitis C virus, read-out: 1A Y93H IC50 (nM), replicon 1AY93H

SMILES | IC50 (HCV replicon 1AQ30D; [1]) | IC50 (HCV replicon 1B; Hepatitis C virus) | IC50 (HCV replicon 2B; read-out: 2B IC50, replicon 2B) | IC50 (HCV replicon 1A; Hepatitis C virus) | IC50 (HCV replicon 1AY93H; [2]) | IC50 (HCV replicon 1AQ30D; [3]) | IC50 (HCV replicon 1B) | IC50 (HCV replicon 1A) | IC50 (HCV replicon 2B; [4]) | IC50 (HCV replicon 1AY93H; [5])
COC(=O)N[C@H](C(=O)N1CCC[C@H]1c1ncc(-c2cc(F)c3c(c2)OC(c2cnc(-c4ccc(OC)cc4)s2)n2c-3cc3cc(-c4cnc([C@@H]5CCCN5C(=O)[C@@H](NC(=O)OC)C(C)C)[nH]4)ccc32)[nH]1)C(C)C (single isomer, unassigned) [Compound 45] | 0.072 nM | 1 pM | 0.011 nM | 1.8 pM | 0.006 nM |  |  |  |  | 
COC(=O)N[C@H](C(=O)N1CCC[C@H]1c1ncc(-c2cc(C)c3c(c2)OC(c2ncc(C4CC4)s2)n2c-3cc3cc(-c4cnc([C@@H]5CCCN5C(=O)[C@@H](NC(=O)OC)C5C[C@@H](C)O[C@@H](C)C5)[nH]4)ccc32)[nH]1)C(C)C (single isomer, unassigned) [Compound 47] |  | 3 pM | 0.058 nM | 2 pM | 1.12 nM | 2.19 nM |  |  |  | 
COC(=O)N[C@H](C(=O)N1CCC[C@H]1c1ncc(-c2cc(C)c3c(c2)OC(c2ncc(C4CC4)s2)n2c-3cc3cc(-c4cnc([C@@H]5CCCN5C(=O)[C@@H](NC(=O)OC)C5C[C@@H](C)O[C@@H](C)C5)[nH]4)ccc32)[nH]1)C(C)C (single isomer, unassigned) [Compound 48] |  |  | 0.016 nM |  | 0.0538 nM | 0.31 nM | 2 pM | 1.5 pM |  | 
COC(=O)NC(C(=O)N1CCC[C@H]1c1ncc(-c2ccc3c(c2)cc2n3C(c3ncc(C4CC4)s3)Oc3cc(-c4cnc([C@@H]5CCCN5C(=O)[C@@H](NC(=O)OC)C(C)C)[nH]4)cc(F)c3-2)[nH]1)C1C[C@@H](C)O[C@@H](C)C1 (single isomer, unassigned) [Compound 51] | 0.152 nM | 3 pM |  | 2.2 pM |  |  |  |  | 0.025 nM | 0.0223 nM
COC(=O)N[C@H](C(=O)N1CCC[C@H]1c1ncc(-c2cc(F)c3c(c2)OC(c2cnc(-c4ccc(Cl)cc4)s2)n2c-3cc3cc(-c4cnc([C@@H]5CCCN5C(=O)[C@@H](NC(=O)OC)C(C)C)[nH]4)ccc32)[nH]1)C(C)C (single isomer, unassigned) [Compound 53] | 0.07 nM | 1 pM | 0.004 nM | 1.6 pM | 0.0022 nM |  |  |  |  | 
COC(=O)NC(C(=O)N1CCC[C@H]1c1ncc(-c2ccc3c(c2)cc2n3C(c3cnc(C(C)C)s3)Oc3cc(-c4cnc([C@@H]5CCCN5C(=O)[C@@H](NC(=O)OC)C(C)C)[nH]4)cc(F)c3-2)[nH]1)C1C[C@@H](C)O[C@@H](C)C1 (single isomer, unassigned) [Compound 57] | 0.028 nM | 1 pM | 0.005 nM |  | 0.002 nM |  |  | 1.6 pM |  | 
CCCc1ncc(C2Oc3cc(-c4cnc([C@@H]5CCCN5C(=O)[C@@H](NC(=O)OC)C(C)C)[nH]4)cc(F)c3-c3cc4cc(-c5cnc([C@@H]6CCCN6C(=O)C(NC(=O)OC)C6CCOC(C)(C)C6)[nH]5)ccc4n32)s1 (single isomer, unassigned) [Compound 59] |  |  | 0.133 nM |  | 0.132 nM | 0.762 nM | 3 pM | 2.6 pM |  | 
CCCc1ncc(C2Oc3cc(-c4cnc([C@@H]5CCCN5C(=O)[C@@H](NC(=O)OC)C(C)C)[nH]4)cc(F)c3-c3cc4cc(-c5cnc([C@@H]6CCCN6C(=O)C(NC(=O)OC)C6CCOC(C)(C)C6)[nH]5)ccc4n32)s1 (single isomer, unassigned) [Compound 61] |  |  | 0.006 nM |  | 0.012 nM | 0.07 nM | 1.7 pM | 3.3 pM |  | 
COC(=O)NC(C(=O)N1[C@@H]2C[C@@H]2C[C@H]1c1ncc(-c2ccc3c(c2)cc2n3C(c3ncc(C4CC4)s3)Oc3cc(-c4cnc([C@@H]5CCCN5C(=O)[C@@H](NC(=O)OC)C(C)C)[nH]4)cc(F)c3-2)[nH]1)C1C[C@@H](C)O[C@@H](C)C1 (single isomer, unassigned) [Compound 65] | 0.095 nM | 3 pM | 0.044 nM |  | 0.0081 nM |  |  | 2.1 pM |  | 
COC(=O)NC(C(=O)N1CCC[C@H]1c1ncc(-c2ccc3c(c2)cc2n3C(c3cnc(C4CCC4)s3)Oc3cc(-c4cnc([C@@H]5CCCN5C(=O)[C@@H](NC(=O)OC)C(C)C)[nH]4)cc(F)c3-2)[nH]1)C1C[C@@H](C)O[C@@H](C)C1 (single isomer, unassigned) [Compound 66] |  | 2 pM | 0.003 nM | 2.3 pM | 0.0021 nM | 0.018 nM |  |  |  | 
COC(=O)NC(C(=O)N1CCC[C@H]1c1ncc(-c2ccc3c(c2)cc2n3C(c3cnc(C4CCC4)s3)Oc3cc(-c4cnc([C@@H]5CCCN5C(=O)[C@@H](NC(=O)OC)C(C)C)[nH]4)cc(F)c3-2)[nH]1)C1C[C@@H](C)O[C@@H](C)C1 (single isomer, unassigned) [Compound 67] |  |  | 0.056 nM |  | 0.225 nM | 1.39 nM | 2 pM | 2 pM |  | 
COC(=O)NC(C(=O)N1CCC[C@H]1c1ncc(-c2ccc3c(c2)c(F)c2n3C(c3cnc(C4CC4)s3)Oc3cc(-c4cnc([C@@H]5CCCN5C(=O)[C@@H](NC(=O)OC)C(C)C)[nH]4)cc(F)c3-2)[nH]1)C1CCOC(C)(C)C1 (single isomer, unassigned) [Compound 72] | 0.099 nM | 2.4 pM |  | 2.9 pM |  |  |  |  | 0.005 nM | 0.006 nM
COC(=O)NC(C(=O)N1CCC[C@H]1c1ncc(-c2ccc3c(c2)cc2n3C(c3cnc(C(C)(C)O)s3)Oc3cc(-c4cnc([C@@H]5CCCN5C(=O)[C@@H](NC(=O)OC)C(C)C)[nH]4)cc(F)c3-2)[nH]1)C1C[C@@H](C)O[C@@H](C)C1 (single isomer, unassigned) [Compound 74] | 0.021 nM |  | 0.005 nM |  | 0.0053 nM |  | 4 pM | 3.6 pM |  | 
COC(=O)NC(C(=O)N1CCC[C@H]1c1ncc(-c2ccc3c(c2)cc2n3C(c3nc(C(F)(F)F)cs3)Oc3cc(-c4cnc([C@@H]5CCCN5C(=O)[C@@H](NC(=O)OC)C(C)C)[nH]4)cc(F)c3-2)[nH]1)C1C[C@@H](C)O[C@@H](C)C1 (single isomer, unassigned) [Compound 76] | 0.422 nM | 3 pM | 0.141 nM |  | 0.0322 nM |  |  | 2.7 pM |  | 
COC(=O)N[C@H](C(=O)N1CCC[C@H]1c1ncc(-c2cc(F)c3c(c2)OC(c2cnc(-c4ccc(OC(F)(F)F)cc4)s2)n2c-3cc3cc(-c4cnc([C@@H]5CCCN5C(=O)[C@@H](NC(=O)OC)C(C)C)[nH]4)ccc32)[nH]1)C(C)C (single isomer, unassigned) [Compound 77] |  | 1 pM | 0.005 nM |  | 0.0056 nM | 0.053 nM |  | 3.5 pM |  | 
COC(=O)N[C@H](C(=O)N1CCC[C@H]1c1ncc(-c2cc(F)c3c(c2)OC(c2cnc(-c4ccc(OC(F)(F)F)cc4)s2)n2c-3cc3cc(-c4cnc([C@@H]5CCCN5C(=O)[C@@H](NC(=O)OC)C(C)C)[nH]4)ccc32)[nH]1)C(C)C (single isomer, unassigned) [Compound 78] |  |  | 0.193 nM |  | 0.165 nM | 1.86 nM | 1 pM | 1.4 pM |  | 
CCc1ncc(C2Oc3cc(-c4cnc([C@@H]5CCCN5C(=O)[C@@H](NC(=O)OC)C(C)C)[nH]4)cc(F)c3-c3cc4cc(-c5cnc([C@@H]6CCCN6C(=O)[C@@H](NC(=O)OC)C(C)C)[nH]5)ccc4n32)s1 (single isomer, unassigned) [Compound 81] | 0.384 nM | 2 pM | 0.027 nM | 2.7 pM | 0.019 nM |  |  |  |  | 
CCc1ncc(C2Oc3cc(-c4cnc([C@@H]5CCCN5C(=O)[C@@H](NC(=O)OC)C(C)C)[nH]4)cc(F)c3-c3cc4cc(-c5cnc([C@@H]6C[C@H]7C[C@H]7N6C(=O)[C@@H](CC(=O)OC)C(C)C)[nH]5)ccc4n32)s1 (single isomer, unassigned) [Compound 83] | 0.12 nM | 3 pM | 0.048 nM | 3 pM | 0.0067 nM |  |  |  |  | 
COC(=O)N[C@H](C(=O)N1CCC[C@H]1c1ncc(-c2cc(F)c3c(c2)OC(c2nc4c(s2)CCCC4)n2c-3cc3cc(-c4cnc([C@@H]5CCCN5C(=O)[C@@H](NC(=O)OC)C(C)C)[nH]4)ccc32)[nH]1)C(C)C (single isomer, unassigned) [Compound 87] |  | 864 pM |  | 2.5 pM |  | 0.068 nM |  |  | 0.003 nM | 0.0714 nM
